Read-outs that look alike come from different tables or passages of the source.
Tests used:
[1] = Plasma pharmacokinetics (LC–MS/MS, non-compartmental analysis); type: in vivo, Japanese patients; settings: for Tmax / AUC(0-t) / AUC(0-inf) / Cmax: human, plasma, oral; for AUC(0-inf): read-out: AUCinf, Median; for Cmax: read-out: Cmax, Median
Description: The PK parameters were determined by non-compartmental analysis using Phoenix WinNonlin 6.2® (Pharsight, Mountain View, CA).

[2] = Phase I dose escalation (3 + 3): DLTs, MTD, recommended dose; type: in vivo
Description: BEZ235 was administered orally as a single agent on a continuous qd or bid dosing schedule. […] Furthermore, in the previous study, a granule formulation (BEZ235 SDS sachet) was developed because of difficulties in swallowing the large size capsules of the investigational drug. The ingredients of this new formulation, which are dispensed as granules contained within a sachet, are essentially the same as the capsule. […] Decisions regarding dose escalation were based on the safety profile, particularly DLTs, observed in the first cycle of treatment for each patient.
Safety assessments consisted of monitoring and recording of all AEs, including laboratory abnormalities and vital signs. DLTs were defined as an AE or a laboratory abnormality assessed as related to the study drug and occurring within the first 28 days of treatment (Cycle 1), as defined in Supplemental Table S1.

[3] = all formulations and dose levels tested (≥ 100 mg), qd; Western oncology patients; cited from earlier work
advanced solid tumors = assay: Tumor response per RECIST v1.0; type: in vivo, Japanese patients
Description: Tumor lesions were assessed by the investigators according to the RECIST guidelines, v1.0. Patients underwent screening using computed tomography (CT) or magnetic resonance imaging (MRI) scans. Screening was performed within 28 days of the first dose. The post-baseline RECIST assessments were performed every two cycles and then at the end of treatment.

S6 phosphorylation (pS6) = assay: pS6 in normal skin samples (PD biomarker); type: in vivo, Japanese patients; settings: 400 mg bid; 3/6 patients; baseline vs end of Cycle 1

Cn1c(=O)n(-c2ccc(C(C)(C)C#N)cc2)c2c3cc(-c4cnc5ccccc5c4)ccc3ncc21 [BEZ235]
Tmax ([1]; 1000 mg, Cycle 1 Day 1, 1000 mg qd, n = 6, read-out: Tmax, Median): 5 h | AUC(0-t) ([1]; 1000 mg, Cycle 1 Day 8, 1000 mg qd, n = 3, read-out: AUC0 − 24, Median): 8260 ng·h/mL | AUC(0-inf) ([1]; 1000 mg, Cycle 1 Day 8, 1000 mg qd, n = 3): 8300 ng·h/mL | AUC(0-t) ([1]; 1000 mg, Cycle 1 Day 8, 1000 mg qd, n = 7, read-out: AUClast, Median): 9350 ng·h/mL | Cmax ([1]; 1000 mg, Cycle 1 Day 8, 1000 mg qd, n = 7): 912 ng/mL | Tmax ([1]; 1000 mg, Cycle 1 Day 8, 1000 mg qd, n = 7, read-out: Tmax, Median): 6 h | AUC(0-t) ([1]; 1000 mg, Cycle 1 Day 28, 1000 mg qd, n = 2, read-out: AUC0 − 24, Median): 3740 ng·h/mL | AUC(0-inf) ([1]; 1000 mg, Cycle 1 Day 28, 1000 mg qd, n = 2): 3770 ng·h/mL | AUC(0-t) ([1]; 1000 mg, Cycle 1 Day 28, 1000 mg qd, n = 4, read-out: AUClast, Median): 4800 ng·h/mL | Cmax ([1]; 1000 mg, Cycle 1 Day 28, 1000 mg qd, n = 4): 548 ng/mL | Tmax ([1]; 1000 mg, Cycle 1 Day 28, 1000 mg qd, n = 4, read-out: Tmax, Median): 4 h | AUC(0-inf) ([1]; 1200 mg, Cycle 1 Day 1, 1200 mg qd, n = 1): 2290 ng·h/mL | AUC(0-t) ([1]; 1200 mg, Cycle 1 Day 1, 1200 mg qd, n = 3, read-out: AUC0 − 24, Median): 6420 ng·h/mL | AUC(0-t) ([1]; 1200 mg, Cycle 1 Day 1, 1200 mg qd, n = 5, read-out: AUClast, Median): 6420 ng·h/mL | Cmax ([1]; 1200 mg, Cycle 1 Day 1, 1200 mg qd, n = 5): 403 ng/mL | Tmax ([1]; 1200 mg, Cycle 1 Day 1, 1200 mg qd, n = 5, read-out: Tmax, Median): 6 h | AUC(0-inf) ([1]; 1200 mg, Cycle 1 Day 8, 1200 mg qd, n = 1): 14400 ng·h/mL | AUC(0-t) ([1]; 1200 mg, Cycle 1 Day 8, 1200 mg qd, n = 4, read-out: AUC0 − 24, Median): 34200 ng·h/mL | AUC(0-t) ([1]; 1200 mg, Cycle 1 Day 8, 1200 mg qd, n = 4, read-out: AUClast, Median): 33500 ng·h/mL | Cmax ([1]; 1200 mg, Cycle 1 Day 8, 1200 mg qd, n = 4): 1810 ng/mL | Tmax ([1]; 1200 mg, Cycle 1 Day 8, 1200 mg qd, n = 4, read-out: Tmax, Median): 4 h | AUC(0-t) ([1]; 1200 mg, Cycle 1 Day 28, 1200 mg qd, n = 1, read-out: AUC0 − 24, Median): 43400 ng·h/mL | AUC(0-t) ([1]; 1200 mg, Cycle 1 Day 28, 1200 mg qd, n = 2, read-out: AUClast, Median): 37100 ng·h/mL | Cmax ([1]; 1200 mg, Cycle 1 Day 28, 1200 mg qd, n = 2): 2170 ng/mL | Tmax ([1]; 1200 mg, Cycle 1 Day 28, 1200 mg qd, n = 2, read-out: Tmax, Median): 5.9 h | AUC(0-inf) ([1]; 1400 mg, Cycle 1 Day 1, 1400 mg qd, n = 1): 1290 ng·h/mL | AUC(0-t) ([1]; 1400 mg, Cycle 1 Day 1, 1400 mg qd, n = 2, read-out: AUC0 − 24, Median): 13700 ng·h/mL | AUC(0-t) ([1]; 1400 mg, Cycle 1 Day 1, 1400 mg qd, n = 5, read-out: AUClast, Median): 10200 ng·h/mL | Cmax ([1]; 1400 mg, Cycle 1 Day 1, 1400 mg qd, n = 5): 733 ng/mL | Tmax ([1]; 1400 mg, Cycle 1 Day 1, 1400 mg qd, n = 5, read-out: Tmax, Median): 8 h | AUC(0-t) ([1]; 1400 mg, Cycle 1 Day 8, 1400 mg qd, n = 3, read-out: AUC0 − 24, Median): 36400 ng·h/mL | AUC(0-t) ([1]; 1400 mg, Cycle 1 Day 8, 1400 mg qd, n = 5, read-out: AUClast, Median): 35900 ng·h/mL | Cmax ([1]; 1400 mg, Cycle 1 Day 8, 1400 mg qd, n = 5): 2480 ng/mL | Tmax ([1]; 1400 mg, Cycle 1 Day 8, 1400 mg qd, n = 5, read-out: Tmax, Median): 4 h | AUC(0-inf) ([1]; 1400 mg, Cycle 1 Day 28, 1400 mg qd, n = 3): 30700 ng·h/mL | AUC(0-t) ([1]; 1400 mg, Cycle 1 Day 28, 1400 mg qd, n = 4, read-out: AUC0 − 24, Median): 18300 ng·h/mL | AUC(0-t) ([1]; 1400 mg, Cycle 1 Day 28, 1400 mg qd, n = 4, read-out: AUClast, Median): 18300 ng·h/mL | Cmax ([1]; 1400 mg, Cycle 1 Day 28, 1400 mg qd, n = 4): 1510 ng/mL | Tmax ([1]; 1400 mg, Cycle 1 Day 28, 1400 mg qd, n = 4, read-out: Tmax, Median): 4 h | Tmax ([1]; across all dose levels and dosing schedules, Day 1, Day 8, Day 28 of Cycle 1, read-out: Median Tmax): ~4 h | Tmax ([1]; all dose levels and dosing schedules, read-out: individual Tmax range): 1 to 24 h | PK exposures on Day 8 versus Day 1 ([1]; qd and bid regimens, Cycle 1): at least threefold higher | recommended dose (RD) ([2]; human, in vivo, 28 days): 1000 mg | tolerability of 400 mg bid ([2]; in vivo): considered as a tolerable dose | maximum clinically tolerable dose ([2]; qd dosing schedule): 1200 mg | MTD ([2]; qd dosing, highest dose that causes DLT in no more than one out of six patients in Cycle 1): not reached | bioavailability [3]: low bioavailability | complete or partial responses (CR or PR) (advanced solid tumors; all dose levels, qd and bid, 35 patients, RECIST v1.0): No complete or partial responses | Stable disease (SD) as the best response (advanced solid tumors; bid, 2 of 8 evaluable patients): 25.0% | duration of continued treatment with SD (advanced solid tumors; one patient with carcinoma of unknown primary, qd): 10 months | Stable disease (SD) as the best response (advanced solid tumors; qd, 14 of 27 evaluable patients): 51.9% | samples with reduction of pS6 in normal skin (S6 phosphorylation (pS6)): 50%
